Source: KR20210110252A, “폴리펩티드를 포함하는 비알코올성 지방간 질환의 예방 또는 치료용 약학 조성물” (㈜ 디앤디파마텍, priority 2019, dated 2021)
Where no end group is shown, it is not given here. [ ]: non-standard residue; d: D form. Aib = CC(C)(N)C(=O)O

Columns and labels:
[1] = molecular target: GLP-1 수용체 (GLP-1 receptor) (Homo sapiens, UniProt P43220); conditions: read-out: GLP-1의 수용체 EC50; HEK293/CRE-Luc cells with human GLP-1 receptor; 4 h at 37℃; luciferase reporter for cAMP
[2] = tested on: C57BL/6 마우스, high trans-fat diet NAFLD model; assay: In vivo activity 2 and 3: NAFLD model, C57BL/6 mice on high trans-fat diet (40% fat, 20% fructose, 2% cholesterol) for about 16 weeks; set-up: species or system mouse; conditions: 20 nmol/kg s.c. every third day for 4 weeks; also lower than liraglutide 53 nmol/kg daily
글루카곤 수용체(GCGR) = molecular target: T1, 글루카곤 수용체(GCGR) (Homo sapiens, UniProt P47871); assay: Glucagon receptor activity, cAMP Hunter eXpress GCGR CHO-K1 GPCR assay; assay type: cell-based; conditions: CHO-K1 cells with human glucagon receptor; 30 min at 37℃; cAMP production
T1 construct: host or cells: CHO-K1

[3] = tested on: C57BL/6 마우스, high fat diet NAFLD model; assay: In vivo activity 1: NAFLD model, C57BL/6 mice on 60% high fat diet for about 24 weeks; set-up: species or system mouse; conditions: 20 nmol/kg s.c. every second day for 2 weeks; also lower than liraglutide 100 nmol/kg daily

Sequence of GLP-1 수용체 (GLP-1 receptor) (P43220 24-463): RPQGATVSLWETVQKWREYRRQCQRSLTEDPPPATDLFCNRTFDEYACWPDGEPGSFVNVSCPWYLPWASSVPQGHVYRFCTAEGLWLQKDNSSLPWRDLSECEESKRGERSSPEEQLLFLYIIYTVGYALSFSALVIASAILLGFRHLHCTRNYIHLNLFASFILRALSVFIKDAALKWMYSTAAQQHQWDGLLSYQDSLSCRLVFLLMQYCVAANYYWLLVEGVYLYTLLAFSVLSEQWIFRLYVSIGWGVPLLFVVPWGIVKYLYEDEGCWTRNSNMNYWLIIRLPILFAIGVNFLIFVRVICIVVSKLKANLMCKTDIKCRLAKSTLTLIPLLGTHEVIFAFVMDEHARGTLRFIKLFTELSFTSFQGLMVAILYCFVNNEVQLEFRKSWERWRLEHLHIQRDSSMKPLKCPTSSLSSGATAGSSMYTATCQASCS
T1 sequence (P47871 26-477): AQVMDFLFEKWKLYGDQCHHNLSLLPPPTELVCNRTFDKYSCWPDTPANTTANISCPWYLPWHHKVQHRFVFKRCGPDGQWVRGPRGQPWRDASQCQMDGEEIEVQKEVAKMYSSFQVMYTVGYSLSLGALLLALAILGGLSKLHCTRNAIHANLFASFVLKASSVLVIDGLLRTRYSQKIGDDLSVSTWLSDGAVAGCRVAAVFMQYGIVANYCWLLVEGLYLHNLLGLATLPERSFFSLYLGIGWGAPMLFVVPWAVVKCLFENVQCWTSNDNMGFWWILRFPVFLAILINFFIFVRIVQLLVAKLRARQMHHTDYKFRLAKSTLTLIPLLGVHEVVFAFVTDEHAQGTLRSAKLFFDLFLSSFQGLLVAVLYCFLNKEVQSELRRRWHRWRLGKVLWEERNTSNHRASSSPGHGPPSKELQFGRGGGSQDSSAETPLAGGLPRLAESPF

“실시예 2: 서열번호 2 H(Aib)QGTFTSDYSKYLDEQAAKEFVQWLMNTC polypeptide conjugated to 3중 가지형 mPEG-MAL(MW: 50 kDa) (H[Aib]QGTFTSDYSKYLDEQAAKEFVQWLMNTC; numbers in words are those of the source; also: conjugated to 3-branched mPEG-MAL 50 kDa, site not given here)” was tested, and the EC50 [1] was 2.12 nM, the “Hepatic triglyceride vs vehicle group (Fig. 8)” value [2] was “유의적으로 감소” and the “Liver steatosis, H&E and oil-red-O histology vs vehicle group (Fig. 9)” value [2] was “현저하게 감소”. The “Liver weight vs vehicle group (Fig. 7)” value [2] was “유의적으로 감소”, the “NAFLD activity score (NAS) vs vehicle group (Fig. 10)” value [2] was “유의적으로 감소” and the “Serum cholesterol level vs vehicle group (Fig. 6)” value [2] was “유의적으로 감소”. The EC50 (글루카곤 수용체(GCGR)) was 47 nM, the “Liver steatosis, H&E histology vs PBS-treated group (Fig. 5)” value [3] was “현저하게 감소” and the “Liver weight vs PBS-treated group (Fig. 4)” value [3] was “유의적으로 감소”. The “Serum cholesterol level vs PBS-treated group (Fig. 3)” value [3] was “유의적으로 감소”.
